Measured values: ChEMBL document CHEMBL1145851, “Novel substituted pyridinyl imidazoles as potent anticytokine agents with low activity against hepatic cytochrome P450 enzymes” (J Med Chem, 2003)
Active and inactive are the calls of the source. The calls are words filed in the database; no cut-off is given here.

Assays:
[1] = target: T1, MAP kinase p38 (Homo sapiens, UniProt O15264+Q15759+Q16539+P53778); test: Inhibition of p38-related TNF-alpha release by whole blood cells at 10 e-4 to 10 e-8 M; format: functional
[2] = target: T1, MAP kinase p38; test: Inhibitory activity against mitogen-activated protein kinase p38 at 10 e-4 to 10 e-8 M concentration; format: protein assay
[3] = target: CYP3A4 (Homo sapiens, UniProt P08684); test: Inhibition of Cytochrome P450 3A4 at 10 uM; format: ADME
[4] = target: T2, CYP1A2 (Homo sapiens, UniProt P05177); test: Inhibition of Cytochrome P450 1A2 at 10 uM; format: ADME
T2 sequence (P05177 whole entry): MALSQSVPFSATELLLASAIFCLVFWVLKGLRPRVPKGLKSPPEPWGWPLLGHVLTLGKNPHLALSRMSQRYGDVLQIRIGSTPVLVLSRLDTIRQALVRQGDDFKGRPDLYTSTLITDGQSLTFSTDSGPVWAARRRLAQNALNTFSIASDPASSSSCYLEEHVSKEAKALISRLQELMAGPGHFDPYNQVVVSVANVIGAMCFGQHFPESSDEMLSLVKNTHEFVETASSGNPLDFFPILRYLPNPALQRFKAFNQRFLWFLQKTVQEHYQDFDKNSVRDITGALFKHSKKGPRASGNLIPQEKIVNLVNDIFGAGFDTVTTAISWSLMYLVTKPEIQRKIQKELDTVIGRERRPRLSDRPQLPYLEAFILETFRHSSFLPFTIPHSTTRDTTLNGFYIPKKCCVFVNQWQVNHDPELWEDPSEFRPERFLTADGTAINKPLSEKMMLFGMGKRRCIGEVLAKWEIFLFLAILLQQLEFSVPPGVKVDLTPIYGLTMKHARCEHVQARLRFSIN

[5] = target: CYP2C19 (Homo sapiens, UniProt P33261); test: Inhibition of Cytochrome P450 2C19 at 10 uM; format: ADME
[6] = target: CYP2D6 (Homo sapiens, UniProt P10635); test: Inhibition of Cytochrome P450 2D6 at 10 uM; format: ADME
[7] = target: T1, MAP kinase p38; test: Inhibitory activity against induction of IL-1-beta release in PBMCs; format: functional
[8] = target: T1, MAP kinase p38; test: Inhibition of p38-related IL1-beta release by whole blood cells at 10 e-4 to 10 e-8 M; format: functional
[9] = target: CYP2C9 (Homo sapiens, UniProt P11712); test: Inhibition of Cytochrome P450 2C9 at 10 uM; format: ADME
[10] = target: T1, MAP kinase p38; test: Inhibitory activity against TNF-alpha release in PBM cells; format: functional, cell-based
[11] = target: T1, MAP kinase p38; test: Inhibition of p38-related TNF-alpha release by PBMC cells at 10 e-4 to 10 e-8 M (no activity); format: functional, cell-based
[12] = target: T1, MAP kinase p38; test: Inhibition of p38-related IL1-beta release by PBMC cells at 10 e-4 to 10 e-8 M (no activity); format: functional, cell-based

Sequence of CYP2C9 (P11712 whole entry): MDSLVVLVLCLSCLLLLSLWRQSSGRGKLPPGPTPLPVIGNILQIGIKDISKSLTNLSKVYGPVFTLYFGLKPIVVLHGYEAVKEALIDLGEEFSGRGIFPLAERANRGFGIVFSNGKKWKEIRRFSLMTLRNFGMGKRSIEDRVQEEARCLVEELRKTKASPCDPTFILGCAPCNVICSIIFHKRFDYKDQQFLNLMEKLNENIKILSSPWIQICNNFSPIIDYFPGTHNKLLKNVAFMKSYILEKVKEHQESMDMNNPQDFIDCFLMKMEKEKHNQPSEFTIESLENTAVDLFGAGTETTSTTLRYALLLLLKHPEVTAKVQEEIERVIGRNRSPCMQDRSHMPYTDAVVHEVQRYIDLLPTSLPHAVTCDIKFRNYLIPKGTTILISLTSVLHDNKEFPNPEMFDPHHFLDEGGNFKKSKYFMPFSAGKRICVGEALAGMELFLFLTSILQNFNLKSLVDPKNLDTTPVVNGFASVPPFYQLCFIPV
Sequence of CYP3A4 (P08684 whole entry): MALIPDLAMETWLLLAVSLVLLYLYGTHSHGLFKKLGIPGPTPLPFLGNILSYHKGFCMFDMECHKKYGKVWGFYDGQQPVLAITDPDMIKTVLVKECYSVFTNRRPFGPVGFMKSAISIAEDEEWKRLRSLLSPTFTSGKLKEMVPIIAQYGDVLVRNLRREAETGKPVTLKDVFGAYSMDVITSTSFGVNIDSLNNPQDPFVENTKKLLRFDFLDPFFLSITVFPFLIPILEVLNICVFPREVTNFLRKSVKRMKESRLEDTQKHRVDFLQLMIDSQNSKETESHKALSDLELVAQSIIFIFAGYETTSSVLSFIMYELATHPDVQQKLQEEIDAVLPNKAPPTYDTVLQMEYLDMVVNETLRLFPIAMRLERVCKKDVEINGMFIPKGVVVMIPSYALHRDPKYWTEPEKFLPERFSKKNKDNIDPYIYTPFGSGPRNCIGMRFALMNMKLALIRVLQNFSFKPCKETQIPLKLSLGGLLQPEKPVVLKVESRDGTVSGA
Sequence of CYP2D6 (P10635 whole entry): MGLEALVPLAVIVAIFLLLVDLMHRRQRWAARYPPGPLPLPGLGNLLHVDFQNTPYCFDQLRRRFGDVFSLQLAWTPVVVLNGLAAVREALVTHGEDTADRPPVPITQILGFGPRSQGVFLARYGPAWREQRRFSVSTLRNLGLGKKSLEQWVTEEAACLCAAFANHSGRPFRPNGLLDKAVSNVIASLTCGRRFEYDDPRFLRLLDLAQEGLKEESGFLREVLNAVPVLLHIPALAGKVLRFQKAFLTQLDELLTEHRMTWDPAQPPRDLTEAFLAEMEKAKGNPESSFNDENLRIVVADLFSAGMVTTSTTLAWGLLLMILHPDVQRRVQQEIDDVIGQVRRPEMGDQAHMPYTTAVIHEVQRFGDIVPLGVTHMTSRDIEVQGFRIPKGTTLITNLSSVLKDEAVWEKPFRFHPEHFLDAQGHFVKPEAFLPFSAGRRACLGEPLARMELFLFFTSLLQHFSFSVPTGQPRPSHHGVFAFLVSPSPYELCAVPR
Sequence of CYP2C19 (P33261 whole entry): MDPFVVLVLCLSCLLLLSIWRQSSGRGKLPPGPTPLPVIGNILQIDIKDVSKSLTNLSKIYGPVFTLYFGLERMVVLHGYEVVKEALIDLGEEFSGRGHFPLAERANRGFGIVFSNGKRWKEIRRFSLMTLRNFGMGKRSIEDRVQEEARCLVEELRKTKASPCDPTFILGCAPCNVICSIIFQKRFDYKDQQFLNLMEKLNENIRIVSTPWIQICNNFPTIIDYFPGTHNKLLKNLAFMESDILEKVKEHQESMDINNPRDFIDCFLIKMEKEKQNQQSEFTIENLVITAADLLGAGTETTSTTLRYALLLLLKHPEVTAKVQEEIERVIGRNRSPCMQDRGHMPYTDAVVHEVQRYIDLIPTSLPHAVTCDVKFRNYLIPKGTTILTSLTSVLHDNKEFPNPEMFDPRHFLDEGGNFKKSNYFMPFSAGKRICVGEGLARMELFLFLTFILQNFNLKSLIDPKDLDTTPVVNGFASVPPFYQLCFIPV

SMILES | IC50 [2] [nM] | IC50 [7] [nM] | IC50 [10] [nM] | further results
CSc1nc(-c2ccc(F)cc2)c(-c2ccnc(NC(C)=O)c2)n1C1CC(C)(C)NC(C)(C)C1 | 340 | 460 | 4500 | IC50 [1]: 5400 nM; inhibition at 10 µM [3]: 79%; inhibition at 10 µM [4]: < 0%; inhibition at 10 µM [5]: 7.6%; inhibition at 10 µM [6]: 14.6%; IC50 [8]: 2150 nM; inhibition at 10 µM [9]: 2.6%
CSc1nc(-c2ccc(F)cc2)c(-c2ccnc(F)c2)[nH]1 | 3800 | 300 | 2800 | 
C[S+]([O-])c1ccc(CSc2nc(-c3ccc(F)cc3)c(-c3ccnc(F)c3)[nH]2)cc1 (stereo unspecified) | 9300 | 2450 | 6900 | 
CSc1nc(-c2ccnc(O)c2)c(-c2ccc(F)cc2)n1C |  | 7200 | 31300 | 
C[S+]([O-])c1ccc(CSc2nc(-c3ccc(F)cc3)c(-c3ccnc(Cl)c3)[nH]2)cc1 (stereo unspecified) |  | 2100 | 12000 | 
CSc1nc(-c2ccc(F)cc2)c(-c2ccnc(NCc3ccccc3)c2)n1C | 930 | 82 | 580 | 
CCNc1cc(-c2c(-c3ccc(F)cc3)nc(SC)n2C2CC(C)(C)NC(C)(C)C2)ccn1 | 220 | 620 | 2900 | IC50 [1]: 11000 nM; IC50 [8]: 2700 nM
CSc1nc(-c2ccc(F)cc2)c(-c2ccnc(NC(C)=O)c2)n1C | 500 | 75 | 1100 | IC50 [1]: 12500 nM; inhibition at 10 µM [3]: 16.5%; inhibition at 10 µM [4]: 32.4%; inhibition at 10 µM [5]: 20.3%; inhibition at 10 µM [6]: 13.4%; IC50 [8]: 10800 nM; inhibition at 10 µM [9]: 27.6%
CC(Nc1cc(-c2[nH]c(SCc3ccccc3)nc2-c2ccc(F)cc2)ccn1)c1ccccc1 (stereo unspecified) | 380 | 45 | 2700 | 
COc1cc(-c2[nH]c(SC)nc2-c2ccc(F)cc2)ccn1 |  | 150 | 1900 | 
CSc1nc(-c2ccc(F)cc2)c(-c2ccncc2)[nH]1 | 630 | 44 | 900 | IC50 [1]: 4200 nM; inhibition at 10 µM [3]: 81.4%; inhibition at 10 µM [4]: 43.5%; inhibition at 10 µM [5]: 79.5%; inhibition at 10 µM [6]: 39.8%; IC50 [8]: 1200 nM; inhibition at 10 µM [9]: 72.4%
CSc1nc(-c2ccc(F)cc2)c(-c2ccnc(O)c2)[nH]1 |  | 500 | 3100 | 
CSc1nc(-c2ccc(F)cc2)c(-c2ccnc(OC(C)C)c2)[nH]1 | 560 | 47 | 400 | IC50 [1]: 7200 nM; inhibition at 10 µM [3]: 49.6%; inhibition at 10 µM [4]: 83.2%; inhibition at 10 µM [5]: 62.6%; inhibition at 10 µM [6]: < 0%; IC50 [8]: 2200 nM; inhibition at 10 µM [9]: 67.5%
CSc1nc(-c2ccc(F)cc2)c(-c2ccncc2)n1C1CC(C)(C)NC(C)(C)C1 | 17000 | 850 | 16000 | IC50 [1]: 19100 nM; inhibition at 10 µM [3]: 49.6%; inhibition at 10 µM [4]: 9%; inhibition at 10 µM [5]: 15.3%; inhibition at 10 µM [6]: 19.1%; IC50 [8]: 18500 nM; inhibition at 10 µM [9]: 7.9%
COc1ccc(CNc2cc(-c3[nH]c(SCc4ccccc4)nc3-c3ccc(F)cc3)ccn2)cc1 |  | 180 | 21000 | 
CSc1nc(-c2ccc(F)cc2)c(-c2ccncc2)n1C | 2200 | 450 | 2200 | IC50 [1]: 5100 nM; IC50 [8]: 1080 nM
CSc1nc(-c2ccc(F)cc2)c(-c2ccnc(N)c2)n1C | 2300 | 270 | 3200 | 
COc1ccc(CNc2cc(-c3[nH]c(SC)nc3-c3ccc(F)cc3)ccn2)cc1 | 790 | 56 | 640 | 
CSc1nc(-c2ccc(F)cc2)c(-c2ccnc(NCc3ccc(Cl)cc3)c2)[nH]1 | 950 | 150 | 500 | 
CSc1nc(-c2ccc(F)cc2)c(-c2ccnc(NCc3ccc(C)cc3)c2)[nH]1 | 830 | 85 | 670 | 
Fc1ccc(-c2nc(SCc3ccccc3)[nH]c2-c2ccnc(F)c2)cc1 | 4200 | 2900 | 40500 | 
Fc1ccc(-c2[nH]c(SCc3ccccc3)nc2-c2ccnc(NCc3ccccc3)c2)cc1 | 1420 | 200 | 3200 | 

SMILES | IC50 [2] [nM] | IC50 [7] [nM] | IC50 [10] [nM] | further results
C[S+]([O-])c1ccc(CSc2nc(-c3ccc(F)cc3)c(-c3ccncc3)[nH]2)cc1 (stereo unspecified) |  | 380 | 1100 | inhibition at 10 µM [3]: 87.1%; inhibition at 10 µM [4]: 8.4%; inhibition at 10 µM [5]: 73.6%; inhibition at 10 µM [6]: 71.8%; inhibition at 10 µM [9]: 72.7%
CCCn1c(SC)nc(-c2ccc(F)cc2)c1-c1ccnc(N)c1 |  | 500 | 5400 | 
CCCn1c(SC)nc(-c2ccc(F)cc2)c1-c1ccncc1 | 2200 | 360 | 1300 | 
CSc1nc(-c2ccc(F)cc2)c(-c2ccnc(NC(C)c3ccccc3)c2)n1C (stereo unspecified) | 220 | 15 | 110 | IC50 [1]: 3000 nM; inhibition at 10 µM [3]: 85.8%; inhibition at 10 µM [4]: 57.1%; inhibition at 10 µM [5]: 90.9%; inhibition at 10 µM [6]: 12.4%; IC50 [8]: 4100 nM; inhibition at 10 µM [9]: 83.3%
CCNc1cc(-c2c(-c3ccc(F)cc3)nc(SC)n2C)ccn1 | 700 | 71 | 600 | IC50 [1]: 5000 nM; IC50 [8]: 2000 nM
CSc1nc(-c2ccnc(NC(C)c3ccccc3)c2)c(-c2ccc(F)cc2)n1C (stereo unspecified) | 27000 |  |  | 
CSc1nc(-c2ccc(F)cc2)c(-c2ccnc(NCc3ccccc3)c2)[nH]1 | 650 | 108 | 630 | 
CSc1nc(-c2ccc(F)cc2)c(-c2ccnc(NCCc3ccccc3)c2)[nH]1 | 240 | 31 | 350 | 
CSc1nc(-c2ccc(F)cc2)c(-c2ccnc(NCc3ccc(Cl)c(Cl)c3)c2)[nH]1 | 700 | 230 | 720 | 
CC(Nc1cc(-c2[nH]c(SCc3ccc([S+](C)[O-])cc3)nc2-c2ccc(F)cc2)ccn1)c1ccccc1 (stereo unspecified) | 270 | 40 | 910 | 
CSc1nc(-c2ccc(F)cc2)c(-c2ccnc(Nc3ccccc3)c2)[nH]1 | 130 | 30 | 340 | 
CCCn1c(SC)nc(-c2ccc(F)cc2)c1-c1ccnc(NC(C)=O)c1 |  | 120 | 490 | 
CSc1nc(-c2ccc(F)cc2)c(-c2ccnc(N(Cc3ccccc3)Cc3ccccc3)c2)n1C |  |  |  | NA [11]: inactive; NA [12]: inactive
CSc1nc(-c2ccc(F)cc2)c(-c2ccnc(NC(C)c3ccccc3)c2)[nH]1 (stereo unspecified) |  |  |  | inhibition at 10 µM [3]: 79.2%; inhibition at 10 µM [4]: 66.7%; inhibition at 10 µM [5]: 83.5%; inhibition at 10 µM [6]: 31.1%; inhibition at 10 µM [9]: 79%
Fc1ccc(-c2nc(SCc3ccccc3)[nH]c2-c2ccnc(Cl)c2)cc1 |  | 1800 | 60000 | 
C[S+]([O-])c1ccc(CSc2nc(-c3ccc(F)cc3)c(-c3ccnc(NCc4ccccc4)c3)[nH]2)cc1 (stereo unspecified) | 1450 | 470 | 2000 | 
COc1ccc(C(=O)Nc2cc(-c3c(-c4ccc(F)cc4)nc(SC)n3C)ccn2)cc1 |  | 440 | 640 | 
CSc1nc(-c2ccc(F)cc2)c(-c2ccnc(N(C)Cc3ccccc3)c2)[nH]1 | 8700 | 2700 | 4600 | 
C[S+]([O-])c1ccc(-c2nc(-c3ccncc3)c(-c3ccc(F)cc3)[nH]2)cc1 (stereo unspecified) [SB-203580] |  |  |  | inhibition at 10 µM [3]: 61%; inhibition at 10 µM [4]: 61%; inhibition at 10 µM [5]: 85%; inhibition at 10 µM [6]: 67%; inhibition at 10 µM [9]: 75%
CSc1nc(-c2ccc(F)cc2)c(-c2ccnc(Cl)c2)[nH]1 |  | 350 | 2200 | inhibition at 10 µM [3]: 48.8%; inhibition at 10 µM [4]: 92.6%; inhibition at 10 µM [5]: 41.4%; inhibition at 10 µM [6]: 18.6%; inhibition at 10 µM [9]: 65%
CCCn1c(SC)nc(-c2ccc(F)cc2)c1-c1ccnc(NCC)c1 |  | 150 | 430 | 
